From US9139581B2 (PORTOLA PHARMACEUTICALS, INC., priority 2008, dated 2015) come the findings set out here.

One experiment has as its system human platelet-rich plasma (PRP). As to the kind of experiment: Inhibition of Convulxin-mediated platelet aggregation in vitro (PRP). The experiment is classed as cell-based. The following applies: Table 4, Convulxin-induced aggregation in human PRP, unit inferred. As to the method: The ability for candidate molecules to inhibit syk-mediated platelet functions are tested by measuring the inhibition the GPVI-specific agonist Convulxin-induced human platelet calcium-mobilization or aggregation. Calcium-mobilization is assessed in human washed platelets in a 96-well microtiter format.
Inhibition of Convulxin-Mediated Platelet Aggregation In Vitro
Platelet-rich plasma (PRP) is prepared by centrifugation of whole blood at 160×g for 20 minutes at room temperature. The PRP layer is removed, transferred to a new tube, and the platelet count is adjusted, if advantageous, to achieve a platelet concentration of ˜3×10^8 platelets/ml using platelet-poor plasma (PPP). PPP is prepared by centrifugation of the remaining blood sample (after removal of PRP) for 20 minutes at 800×g. This preparation of PRP can subsequently be used for aggregation assays in either a 96-well plate or standard cuvette aggregometry.
Inhibition of Convulxin-induced aggregation is determined in 96-well flat-bottom microtiter plates using a microtiter plate shaker and plate reader similar to the procedure described by Frantantoni et al., Am. J. Clin. Pathol. […] All steps are performed at room temperature. For 96-well plate aggregation using platelet-rich plasma (PRP), the total reaction volume of 0.2 ml/well includes 190 μl of PRP (˜3×10^8 platelets/ml, see above), and 5 μl of either serial dilution of test compounds in 30% DMSO or buffer (for control wells). After 20 minutes preincubation at room temperature 5 μl of 320 ng/ml Convulxin agonist solution is added to each well to give a final concentration of 8 ng/ml Convulxin. The plates are then agitated for 5 min on a microtiter plate shaker and the 5 minute reading is obtained in the microtitre plate reader (Softmax, Molecular Devices, Menlo Park, Calif.). Aggregation is calculated from the decrease of OD at 650 nm at t=5 minutes. IC50s were derived by non-linear regression analysis.
Inhibition of Convulxin-induced aggregation was also determined for cuvette light transmittance aggregation assays, serial dilutions (1:2) of test compounds were prepared in 30% DMSO in a 96 well V-bottom plate (final DMSO concentration in the cuvette was 0.3%). […] IC50s were derived by non-linear regression analysis.
As to `CC(=O)N(C)c1ccc(Nc2ncc(F)c(N3CCC(CN)CC3)n2)cc1` [Example 29, N-(4-(4-(4-(aminomethyl)piperidin-1-yl)-5-fluoropyrimidin-2-ylamino)phenyl)-N-methylacetamide], the IC50 stood at 316 nM.

As to `NCC1CCN(c2nc(Nc3ccc(N4CCNCC4)cc3)nc3[nH]ccc23)CC1` [Example 10, 4-(4-(aminomethyl)piperidin-1-yl)-N-(4-(piperazin-1-yl)phenyl)-7H-pyrrolo[2,3-d]pyrimidin-2-amine], the IC50 is 33200 nM.

As for `NC(=O)C1CCCN(c2nc(Nc3ccc(N4CCNCC4)cc3)nc3[nH]ccc23)C1` (centres unmarked) [Example 8, 1-(2-(4-(piperazin-1-yl)phenylamino)-7H-pyrrolo[2,3-d]pyrimidin-4-yl)piperidine-3-carboxamide], the half-inhibitory concentration (IC50) was 25300 nM.

Consider `CC(=O)N1CCN(c2ccc(Nc3nc(N4CCC[C@H](N)C4)c4cc[nH]c4n3)cc2)CC1` [(S)-1-(4-(4-(4-(3-aminopiperidin-1-yl)-7H-pyrrolo[2,3-d]pyrimidin-2-ylamino)phenyl)piperazin-1-yl)ethanone], for which the half-inhibitory concentration (IC50) was 13800 nM.

Molecule `CC(=O)N1CCN(c2ccc(Nc3nc(N4CCCC(C(N)=O)C4)c4cc[nH]c4n3)cc2)CC1` (centres unmarked) [Example 9, 1-(2-(4-(4-acetylpiperazin-1-yl)phenylamino)-7H-pyrrolo[2,3-d]pyrimidin-4-yl)piperidine-3-carboxamide] displayed a concentration for half-maximal inhibition (IC50) of 12300 nM.

The target of a further experiment is T1, full length active recombinant SYK enzyme (Homo sapiens, UniProt P43405).
T1 construct: full length active recombinant SYK enzyme (Millipore, Calif.); purchased Millipore
As to the kind of experiment: Inhibition of Syk tyrosine phosphorylation activity (LANCE TR-FRET). The experiment is classed as biochemical. To be noted: Table 3; 1 nM SYK, 100 μM ATP; read-out: Syk IC50 code. In short, it runs like this: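 The reaction is quenched with buffer holding Eu-anti-phosphotyrosine and streptavidin-APC, and detection runs 1 hr at room temperature. TR-FRET is read and IC50s come from non-linear regression.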
As to `c1cc2c(NCCCN3CCOCC3)nc(Nc3ccc4cn[nH]c4c3)nc2[nH]1` [Example 61, N2-(1H-indazol-6-yl)-N4-(3-morpholinopropyl)-7H-pyrrolo[2,3-d]pyrimidine-2,4-diamine], the half-maximal inhibitory concentration (IC50) is greater than 1000 nM.

As to `NC(=O)c1cnc(-[n+]2ccn(-c3ccc(N)cc3)c2)nc1NC1CC1` [Example 6, 1-(4-aminophenyl)-3-(5-carbamoyl-4-(cyclopropylamino)pyrimidin-2-yl)-1H-imidazol-3-ium], the IC50 is greater than 1000 nM.

Regarding `NC(=O)c1cnc(-n2ncc3ccc(N)c(Cl)c32)nc1NC1CC1` [Example 7, 2-(6-amino-7-chloro-1H-indazol-1-yl)-4-(cyclopropylamino)pyrimidine-5-carboxamide], the IC50 was 100 to 1000 nM.

As to `CC(=O)N1CCN(c2ccc(Nc3nc(NC4CCS(=O)(=O)C4)c4cc[nH]c4n3)cc2)CC1` (centres unmarked) [Example 100A, 1-(4-(4-(4-(1,1-dioxy-tetrahydrothiophen-3-ylamino)-7H-pyrrolo[2,3-d]pyrimidin-2-ylamino)phenyl)piperazin-1-yl)ethanone], the half-maximal inhibitory concentration (IC50) is greater than 1000 nM.

In the case of `N#Cc1c[nH]c2nc(Nc3ccc(S(N)(=O)=O)cc3)nc(NC3CC3)c12` [Example 106, 4-(5-cyano-4-(cyclopropylamino)-7H-pyrrolo[2,3-d]pyrimidin-2-ylamino)benzenesulfonamide], the half-inhibitory concentration (IC50) is 1 to 10 nM.

For the molecule `CC(=O)N1CCN(c2ccc(Nc3nc(NC4CCC(N)CC4)c4cc[nH]c4n3)cc2)CC1` (centres unmarked) [Example 66, 1-(4-(4-(4-(4-aminocyclohexylamino)-7H-pyrrolo[2,3-d]pyrimidin-2-ylamino)phenyl)piperazin-1-yl)ethanone], the IC50 lay within 10 to 100 nM.

Consider `Nc1nc(Nc2ccc3cn[nH]c3c2)nc2[nH]ccc12` [Example 79, N^2-(1H-indazol-6-yl)-7H-pyrrolo[2,3-d]pyrimidin-2,4-diamine], for which the IC50 was in the range of 100 to 1000 nM.

As to `CCCCOC(=O)CN(C)S(=O)(=O)c1ccc(Nc2nc(NC3CCC3)c3cc[nH]c3n2)cc1` [Example 53, butyl 2-(4-(4-(cyclobutylamino)-7H-pyrrolo[2,3-d]pyrimidin-2-ylamino)-N-methylphenylsulfonamido)acetate], the 50% inhibitory concentration (IC50) was 100 to 1000 nM.

Turning to `C[C@H](CO)Nc1nc(Nc2ccc(N3CCNCC3)cc2)nc2[nH]ccc12` [Example 98B, (R)-2-(2-(4-(piperazin-1-yl)phenylamino)-7H-pyrrolo[2,3-d]pyrimidin-4-ylamino)propan-1-ol], the concentration for half-maximal inhibition (IC50) was in the range of 100 to 1000 nM.

In the case of `Nc1nc(Nc2ccc(C(=O)O)cc2)nc2[nH]cc(-c3ccncc3)c12` [Example 102, 4-(4-amino-5-(pyridin-4-yl)-7H-pyrrolo[2,3-d]pyrimidin-2-ylamino)benzoic acid], the IC50 was greater than 1000 nM.

Regarding `c1cc2c(NC3CCNCC3)nc(Nc3ccc4cn[nH]c4c3)nc2[nH]1` [Example 58, N2-(1H-indazol-6-yl)-N4-(piperidin-4-yl)-7H-pyrrolo[2,3-d]pyrimidine-2,4-diamine], the IC50 fell in the range of 100 to 1000 nM.

On to `CC(=O)N1CCN(c2ccc(Nc3nc(NC4CC4)c4c(C#N)c[nH]c4n3)cc2)CC1` [Example 107, 2-(4-(4-acetylpiperazin-1-yl)phenylamino)-4-(cyclopropylamino)-7H-pyrrolo[2,3-d]pyrimidine-5-carbonitrile], for which the IC50 fell in the range of 10 to 100 nM.

Regarding `CC(=O)N1CCN(c2ccc(Nc3nc(N4CCCC(C(N)=O)C4)c4nc[nH]c4n3)cc2)CC1` (centres unmarked) [Example 118, 1-(2-(4-(4-acetylpiperazin-1-yl)phenylamino)-9H-purin-6-yl)piperidine-3-carboxamide], the half-maximal inhibitory concentration (IC50) lay within 100 to 1000 nM.

Regarding `N#CCC(=O)N1CCCC(Nc2nc(Nc3ccc(C(N)=O)cc3)nc3[nH]ccc23)C1` (centres unmarked) [Example 110, 4-(4-(1-(2-cyanoacetyl)piperidin-3-ylamino)-7H-pyrrolo[2,3-d]pyrimidin-2-ylamino)benzamide], the half-inhibitory concentration (IC50) was greater than 1000 nM.

`CC(=O)c1c[nH]c2nc(Nc3ccc4cn[nH]c4c3)nc(NC3CC3)c12` [Example 42, 1-(2-(1H-indazol-6-ylamino)-4-(cyclopropylamino)-7H-pyrrolo[2,3-d]pyrimidin-5-yl)ethanone]: the half-maximal inhibitory concentration (IC50) lay within 100 to 1000 nM.

As to `CN(C(=O)CO)c1ccc(Nc2nc(NC3CC3)c3cc[nH]c3n2)cc1` [Example 75, N-(4-(4-(cyclopropylamino)-7H-pyrrolo[2,3-d]pyrimidin-2-ylamino)phenyl)-2-hydroxy-N-methylacetamide], the IC50 is 10 to 100 nM.

As to `CS(=O)(=O)Cc1cccc(Nc2nc(NC3CCC3)c3cc[nH]c3n2)c1` [Example 77], the 50% inhibitory concentration (IC50) was 100 to 1000 nM.

As to `NCC1CCN(c2nc(Nc3ccc4c(c3)CCC(=O)N4)ncc2Br)CC1` [Example 132, 6-(4-(4-(aminomethyl)piperidin-1-yl)-5-bromopyrimidin-2-ylamino)-3,4-dihydroquinolin-2(1H)-one], the IC50 was 10 to 100 nM.

In the case of `Clc1c[nH]c2nc(Nc3ccc4cn[nH]c4c3)nc(NC3CCC3)c12` [Example 50, 5-chloro-N4-cyclobutyl-N2-(1H-indazol-6-yl)-7H-pyrrolo[2,3-d]pyrimidine-2,4-diamine], the 50% inhibitory concentration (IC50) is 1 to 10 nM.

For `OC1CCN(c2ccc(Nc3nc(NC4CCC4)c4cc[nH]c4n3)cc2)CC1` [Example 56, 1-(4-(4-(cyclobutylamino)-7H-pyrrolo[2,3-d]pyrimidin-2-ylamino)phenyl)piperidin-4-ol], the half-maximal inhibitory concentration (IC50) lay in the range of 10 to 100 nM.

For the molecule `NCC1CCN(c2nc(Nc3ccc(C(=O)O)cc3)ncc2F)CC1` [Example 131, 4-(4-(4-(aminomethyl)piperidin-1-yl)-5-fluoropyrimidin-2-ylamino)benzoic acid], the IC50 was 10 to 100 nM.

Consider `Cc1cc2c(NC3CCC3)nc(Nc3ccc4cn[nH]c4c3)nc2[nH]1` [Example 59, N4-cyclobutyl-N2-(1H-indazol-6-yl)-6-methyl-7H-pyrrolo[2,3-d]pyrimidine-2,4-diamine], for which the IC50 was greater than 1000 nM.

The same experiment, now with this note: Table 4; 1 nM SYK, 100 μM ATP; read-out: syk IC50.
`CC(=O)N(C)c1ccc(Nc2ncc(F)c(N3CCC(CN)CC3)n2)cc1` [Example 29, N-(4-(4-(4-(aminomethyl)piperidin-1-yl)-5-fluoropyrimidin-2-ylamino)phenyl)-N-methylacetamide]: the IC50 lay within 10 to 100 nM.

Take `NCC1CCN(c2nc(Nc3ccc(N4CCNCC4)cc3)nc3[nH]ccc23)CC1` [Example 10, 4-(4-(aminomethyl)piperidin-1-yl)-N-(4-(piperazin-1-yl)phenyl)-7H-pyrrolo[2,3-d]pyrimidin-2-amine]: the IC50 is 1 to 10 nM.

For the molecule `NC(=O)C1CCCN(c2nc(Nc3ccc(N4CCNCC4)cc3)nc3[nH]ccc23)C1` (centres unmarked) [Example 8, 1-(2-(4-(piperazin-1-yl)phenylamino)-7H-pyrrolo[2,3-d]pyrimidin-4-yl)piperidine-3-carboxamide], the half-maximal inhibitory concentration (IC50) lay within 100 to 1000 nM.

Turning to `CC(=O)N1CCN(c2ccc(Nc3nc(N4CCC[C@H](N)C4)c4cc[nH]c4n3)cc2)CC1` [(S)-1-(4-(4-(4-(3-aminopiperidin-1-yl)-7H-pyrrolo[2,3-d]pyrimidin-2-ylamino)phenyl)piperazin-1-yl)ethanone], the 50% inhibitory concentration (IC50) fell in the range of 100 to 1000 nM.

Regarding `CC(=O)N1CCN(c2ccc(Nc3nc(N4CCCC(C(N)=O)C4)c4cc[nH]c4n3)cc2)CC1` (centres unmarked) [Example 9, 1-(2-(4-(4-acetylpiperazin-1-yl)phenylamino)-7H-pyrrolo[2,3-d]pyrimidin-4-yl)piperidine-3-carboxamide], the IC50 was in the range of 100 to 1000 nM.

`NC(=O)C1CCCN(c2nc(Nc3ccc4cn[nH]c4c3)ncc2F)C1` (centres unmarked) [Example 26, 1-(2-(1H-indazol-6-ylamino)-5-fluoropyrimidin-4-yl)piperidine-3-carboxamide]: the IC50 was in the range of 100 to 1000 nM.

Take `CC(=O)N1CCN(c2ccc(Nc3nc(N4CCCCC4)c4cc[nH]c4n3)cc2)CC1` [Example 20, 1-(4-(4-(4-(piperidin-1-yl)-7H-pyrrolo[2,3-d]pyrimidin-2-ylamino)phenyl)piperazin-1-yl)ethanone]: the concentration for half-maximal inhibition (IC50) is greater than 1000 nM.

Take `CC(C)(C)OC(=O)NCC1CCCCN1c1nc(Nc2ccc3cn[nH]c3c2)ncc1F` (centres unmarked) [Example 35, tert-butyl (1-(2-(1H-indazol-6-ylamino)-5-fluoropyrimidin-4-yl)piperidin-2-yl)methylcarbamate]: the IC50 is greater than 1000 nM.
